Laboratory results published in US20220041606A1, “POSITIVE ALLOSTERIC MODULATORS OF THE MUSCARINIC ACETYLCHOLINE RECEPTOR M1” (Vanderbilt University, priority 2020, published 2022).

Legend:
human mAChR M1 [1] = biological target: T1, human mAChR M1 (Homo sapiens, UniProt P11229); test: mAChR M1 cell-based functional assay (calcium mobilization), PAM activity: increase in the EC20 acetylcholine response; conditions: CHO-K1 cells expressing hM1; potentiation of EC20 acetylcholine response
T1 construct: host or cells: CHO-K1 cells (ATCC), stably transfected using Lipofectamine2000
T1 sequence (P11229 1-460): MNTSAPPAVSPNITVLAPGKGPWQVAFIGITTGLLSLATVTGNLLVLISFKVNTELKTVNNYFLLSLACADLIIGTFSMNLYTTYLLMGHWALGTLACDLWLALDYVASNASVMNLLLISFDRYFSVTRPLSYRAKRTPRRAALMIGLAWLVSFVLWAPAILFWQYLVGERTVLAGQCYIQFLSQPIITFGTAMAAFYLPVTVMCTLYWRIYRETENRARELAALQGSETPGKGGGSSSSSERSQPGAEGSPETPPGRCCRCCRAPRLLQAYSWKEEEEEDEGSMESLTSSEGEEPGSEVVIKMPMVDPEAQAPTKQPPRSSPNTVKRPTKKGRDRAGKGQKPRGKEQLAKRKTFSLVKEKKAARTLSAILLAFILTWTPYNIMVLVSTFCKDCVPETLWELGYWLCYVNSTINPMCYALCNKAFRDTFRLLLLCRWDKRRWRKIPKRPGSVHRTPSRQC
Text: (§1) Chinese hamster ovary (CHO-K1) cells stably expressing rat (r)M1 were purchased from the American Type Culture Collection and cultured according to their indicated protocol. CHO cells stably expressing human (h)M2, hM3, and hM5 were described previously (Levey, et al., 1991); hM1 and hM4 cDNAs were purchased from Missouri S&T cDNA Resource; rM4 cDNA was provided by T. L. Bonner (National Institutes of Health, Bethesda, MID). rM2 and rM3 were cloned from a rat brain cDNA library and sequence verified. hM1, rM2, rM3, hM4, and rM4 cDNAs were used to stably transfect CHO-K1 cells purchased from the American Type Culture Collection using Lipofectamine2000. To make stable rM2, hM2, rM3, hM4, and rM4 cell lines for use in calcium mobilization assays, these cells also were stably transfected with a chimeric G-protein (Gqi5) (provided by B. R. Conklin, University of California, San Francisco) using Lipofectamine 2000. rM1, hM1, rM3, hM3, rM5, and hM5 cells were grown in Ham's F-12 medium containing 10% heat-inactivated fetal bovine serum (FBS), 20 mM HEPES, and 50 μg/mL G418 sulfate. rM2-Gq15, hM2-Gqi5, and hM4-Gqi5 cells were grown in the same medium also containing 500 μg/mL Hygromycin B. Stable rM4-Gqi5 cells were grown in DMEM containing 10% heat-inactivated FBS, 20 mM HEPES, 400 μg/mL G418 sulfate, and 500 μg/mL Hygromycin B.
(§2) For high throughput measurement of agonist-evoked increases in intracellular calcium, CHO-K1 cells stably expressing muscarinic receptors were plated in growth medium lacking G418 and hygromycin at 15,000 cells/20 μL/well in Greiner 384-well black-walled, tissue culture (TC)-treated, clear-bottom plates (VWR). Cells were incubated overnight at 37° C. and 5% CO2. The next day, cells were washed using an ELX 405 (BioTek) with four washes (80 μL) of assay buffer then aspirated to 20 μL. Next, 20 μL of 16 μM Fluo-4/acetoxymethyl ester (Invitrogen, Carlsbad, Calif.) prepared as a 2.3 mM stock in DMSO and mixed in a 1:1 ratio with 10% (w/v) Pluronic F-127 and diluted in assay buffer was added to the wells and the cell plates were incubated for 50 min at 37° C. and 5% CO2. Dye was removed by washing with the ELX 405 (four 80 μL washes of assay buffer) then aspirated to 20 μL. Compound master plates were formatted in an 11 point CRC format (1:3 dilutions) in 100% DMSO with a starting concentration of 10 mM using the BRAVO liquid handler (Agilent). Test compound CRCs were then transferred to daughter plates (240 nL) using the Echo acoustic plate reformatter (Labcyte, Sunnyvale, Calif.) and then diluted into assay buffer (40 μL) to a 2× stock using a Thermo Fisher Combi (Thermo Fisher Scientific, Waltham, Mass.).
(§3) Calcium flux was measured using the Functional Drug Screening System (FDSS) 6000 (Hamamatsu Corporation, Tokyo, Japan) as an increase in the fluorescent static ratio. Compounds were applied to cells (20 μL, 2×) using the automated system of the FDSS 6000 at 4 s into the 300 s protocol and the data were collected at 1 Hz. At 144 s into the 300s protocol, 10 μL of an EC20 concentration of the muscarinic receptor agonist acetylcholine was added (5×), followed by the addition of 12 μL an EC80 concentration of acetylcholine at the 230 s time point (5×). Agonist activity was analyzed as a concentration-dependent increase in calcium mobilization upon compound addition. Emax values for agonist activity are expressed relative to the maximum for acetylcholine. Positive allosteric modulator activity was analyzed as a concentration-dependent increase in the EC20 acetylcholine response. Antagonist activity was analyzed as a concentration-dependent decrease in the EC80 acetylcholine response. Concentration-response curves were generated using a four-parameter logistical equation in XLfit curve fitting software (IDBS, Bridgewater, N.J.) for Excel (Microsoft, Redmond, Wash.) or Prism (GraphPad Software, Inc., San Diego, Calif.). […]

human mAChR M1 [2] = biological target: T1, human mAChR M1; test: mAChR M1 cell-based functional assay (calcium mobilization), agonist activity upon compound addition; conditions: CHO-K1 cells expressing hM1; for EC50: compound alone, before acetylcholine addition; for Emax: relative to the maximum for acetylcholine
Text: as §1, §2, §3

Row | EC50 (human mAChR M1 [1]) [nM] | Emax (human mAChR M1 [1]) [%] | EC50 (human mAChR M1 [2]) [µM] | Emax (human mAChR M1 [2]) [%] | SMILES
1 | 520 | 81 | > 10 | < 5 | O=C(N[C@H]1CCCCC[C@@H]1O)c1cn(Cc2ccc(-n3cccn3)cc2)c(=O)n2ccnc12 [Compound B16, 6-(4-(1H-pyrazol-1-yl)benzyl)-N-((1S,2S)-2-hydroxycycloheptyl)-5-oxo-5,6-dihydroimidazo[1,2-c]pyrimidine-8-carboxamide]
2 | 970 | 68 | > 10 | < 5 | O=C(N[C@H]1CCCCC[C@@H]1O)c1cn(Cc2ccc(-n3cccn3)cc2)c(=O)c2cccnc12 [Compound A25, 6-(4-(1H-pyrazol-1-yl)benzyl)-N-((1S,2S)-2-hydroxycycloheptyl)-5-oxo-5,6-dihydro-1,6-naphthyridine-8-carboxamide]
3 | 5120 | 62 | > 10 | < 5 | O=C(N[C@H]1CCCC[C@@H]1O)c1cn(Cc2ccc(-n3cccn3)cc2)c(=O)c2ccoc12 [Compound D3, 5-(4-(1H-pyrazol-1-yl)benzyl)-N-((1S,2S)-2-hydroxycyclohexyl)-4-oxo-4,5-dihydrofuro[3,2-c]pyridine-7-carboxamide]
4 | 3100 | 57 | > 10 | < 5 | Cn1cc2c(-c3cc(F)c(Cn4cc(C(=O)NC5CC6(COC6)C5)c5nccnc5c4=O)c(F)c3)cccc2n1 [Compound A71, 6-(2,6-difluoro-4-(2-methyl-2H-indazol-4-yl)benzyl)-5-oxo-N-(2-oxaspiro[3.3]heptan-6-yl)-5,6-dihydropyrido[3,4-b]pyrazine-8-carboxamide]
5 | 980 | 68 |  | 27 | Cn1cc(-c2ccc(Cn3cc(C(=O)N[C@H]4CCCC[C@@H]4O)c4ncccc4c3=O)cn2)cn1 [Compound A16, N-((1S,2S)-2-hydroxycyclohexyl)-6-((6-(1-methyl-1H-pyrazol-4-yl)pyridin-3-yl)methyl)-5-oxo-5,6-dihydro-1,6-naphthyridine-8-carboxamide]
6 | ≥ 10000 | 32 | > 10 | < 5 | Cn1cc2c(-c3cc(F)c(Cn4cc(C(=O)NC5(CO)CCOC5)c5nccnc5c4=O)c(F)c3)cccc2n1 (stereo not shown) [Compound A72, 6-(2,6-difluoro-4-(2-methyl-2H-indazol-4-yl)benzyl)-N-(3-(hydroxymethyl)tetrahydrofuran-3-yl)-5-oxo-5,6-dihydropyrido[3,4-b]pyrazine-8-carboxamide]
7 | 780 | 63 | > 10 | < 5 | Cc1nc(-c2ccc(Cn3cc(C(=O)N[C@H]4CCCC[C@@H]4O)c4ncccc4c3=O)cc2)co1 [Compound A20, N-((1S,2S)-2-hydroxycyclohexyl)-6-(4-(2-methyloxazol-4-yl)benzyl)-5-oxo-5,6-dihydro-1,6-naphthyridine-8-carboxamide]
8 | 480 | 60 |  | 41 | Cn1cc(-c2ccc(Cn3cc(C(=O)N[C@H]4CCOC[C@@H]4O)c4nccn4c3=O)cn2)cn1 [Compound B10, N-((3R,4S)-3-hydroxytetrahydro-2H-pyran-4-yl)-6-((6-(1-methyl-1H-pyrazol-4-yl)pyridin-3-yl)methyl)-5-oxo-5,6-dihydroimidazo[1,2-c]pyrimidine-8-carboxamide]
9 | 600 | 45 | > 10 | < 5 | Cn1ccc(-c2ccc(Cn3cc(C(=O)N[C@H]4CCC[C@@H]4O)c4ncn(C)c4c3=O)c(F)c2)n1 [Compound C2, 5-(2-fluoro-4-(1-methyl-1H-pyrazol-3-yl)benzyl)-N-((1S,2S)-2-hydroxycyclopentyl)-3-methyl-4-oxo-4,5-dihydro-3H-imidazo[4,5-c]pyridine-7-carboxamide]
10 | 4040 | 67 | > 10 | < 5 | Cn1cc2c(-c3cc(F)c(Cn4cc(C(=O)NCC(C)(C)O)c5nccnc5c4=O)c(F)c3)cccc2n1 [Compound A73, 6-(2,6-difluoro-4-(2-methyl-2H-indazol-4-yl)benzyl)-N-(2-hydroxy-2-methylpropyl)-5-oxo-5,6-dihydropyrido[3,4-b]pyrazine-8-carboxamide]
11 | 1270 | 59 | > 10 | 19 | Cn1cc2c(-c3cc(F)c(Cn4cc(C(=O)N[C@H]5CC[C@@H]5O)c5nccn5c4=O)c(F)c3)cccc2n1 [Compound B22, 6-(2,6-difluoro-4-(2-methyl-2H-indazol-4-yl)benzyl)-N-((1S,2S)-2-hydroxycyclobutyl)-5-oxo-5,6-dihydroimidazo[1,2-c]pyrimidine-8-carboxamide]
12 | 810 | 77 | > 10 | < 5 | Cn1cc2c(-c3cc(F)c(Cn4cc(C(=O)N[C@H]5CCC[C@@H]5O)c5occc5c4=O)c(F)c3)cccc2n1 [Compound D20, 5-(2,6-difluoro-4-(2-methyl-2H-indazol-4-yl)benzyl)-N-((1S,2S)-2-hydroxycyclopentyl)-4-oxo-4,5-dihydrofuran[3,2-c]pyridine-7-carboxamide]
13 | ≥ 10000 | 41 | > 10 | < 5 | COc1cc(-c2cc(F)c(Cn3cc(C(=O)N[C@H]4CCOC[C@@H]4O)c4ncccc4c3=O)c(F)c2)ccc1Cl [Compound A39, 6-((4′-chloro-3,5-difluoro-3′-methoxy-[1,1′-biphenyl]-4-yl)methyl)-N-((3R,4S)-3-hydroxytetrahydro-2H-pyran-4-yl)-5-oxo-5,6-dihydro-1,6-naphthyridine-8-carboxamide]
14 | 430 | 82 | > 10 | 9 | Cn1cc2c(-c3cc(F)c(Cn4cc(C(=O)N[C@H]5CCCC[C@@H]5O)c5occc5c4=O)c(F)c3)cccc2n1 [Compound D19, 5-(2,6-difluoro-4-(2-methyl-2H-indazol-4-yl)benzyl)-N-((1S,2S)-2-hydroxycyclohexyl)-4-oxo-4,5-dihydrofuro[3,2-c]pyridine-7-carboxamide]
15 | 380 | 67 | 6.02 | 55 | O=C(N[C@H]1CCOC[C@@H]1O)c1cn(Cc2ccc(-n3cccn3)cc2)c(=O)n2ccnc12 [Compound B12, 6-(4-(1H-Pyrazol-1-yl)benzyl)-N-((3R,4S)-3-hydroxytetrahydro-2H-pyran-4-yl)-5-oxo-5,6-dihydroimidazo[1,2-c]pyrimidine-8-carboxamide]
